In patent US20140234252A1, “Composition and Methods for the Treatment of Degenerative Retinal Conditions” (The Provost, Fellows, Foundation Scholars, and the other …, priority 2011, published 2014):
Residues, ends and D or L forms follow the SMILES beside them. *: point of attachment. Cbz = O=C(OCc1ccccc1)*; CH2F = FC*

Assays:
BMDMs expressing YFP-ASC = experiment: ASC speck formation in immortalised BMDMs expressing YFP-ASC; type: cell-based, mouse; details: primed BMDMs, live cell imaging
Excerpt: Live cell imaging of speck formation was undertaken using a temperature and CO2 regulated confocal laser scanning microscopy (Olympus FluoView TM FV1000).

THP1 cells = experiment: Western blot of caspase-1 cleavage products in THP1 cells; type: cell-based, human; details: THP1 cell lysates
Procedure: Generally, antibodies specific for caspase-1 (Santa-Cruz Biotech), beta-actin (Abcam), NLRP3 (Sigma Aldrich, Ireland), TLR-4 (Santa-Cruz Biotech) were incubated on membranes overnight at 4° C. Membranes were washed with TBS, and incubated with a secondary antibody against rabbit (IgG) with Horse-Radish-Peroxidase (HRP) conjugates (1:2500) (Sigma-Aldrich, Ireland), or mouse (IgG) (1:1000), (Sigma-Aldrich, Ireland), for 3 hours at room temperature. Immune complexes were detected using enhanced chemiluminescence (ECL). All Western blots were repeated a minimum of 3 times.
ARPE-19 cell line (ATCC CRL 2302) were obtained from LGC promochem, THP1 cells and primary isolated human peripheral blood mononuclear […] (PBMCs) were used for in vitro inflammasome activation assays. Cells were cultured at 37° C., 5% CO2, 95% air in a 1:1 mixture of Dulbecco's modified Eagle's medium (DMEM) and Ham's F12 medium with 1.2 g/L sodium bicarbonate, 2.5 mM L-glutamine, 15 mM HEPES, 0.5 mM sodium pyruvate (Sigma Aldrich) with 10% foetal calf serum (FCS). BMDCs and BMDMs were also isolated from WT, NLRP3-/-, TLR-2-/-, C3H/HeN and C3H/HeJ mice on a congenic C57/B16 background. BMDCs and BMDMs were stained with anti-CD11c-APC and anti-CD11b-PeCy7. Cells were gated on live single cells and expression of CD11c and CD11b was assesed by flow cytometry (FIG. 19). […]

[1] = Zeta potential measurement of C1Q in solution; type: physicochemical
BMDMs = experiment: Cytokine ELISA in BMDMs activated with C1Q; type: cell-based, mouse
Procedure: (§1) FIG. 3: Complement factor C1Q, a component of Drusen, activates the NLRP3 inflammasome: (a) Production of IL-1β (left panel) and TNFα (right panel) in BMDMs primed with CEP for 3 h and activated for 6 h with C1q at increasing doses. (b) Western blot of caspase-1 cleavage products in THP1 cells primed with LPS and treated with increasing doses of C1Q. (c) Live cell imaging of immortalised BL6 BMDMs stably expressing YFP-ASC. Cells were primed for 3 hrs with either LPS (top panel) or CEP-HSA followed by treatment with 10 μg C1Q (right panel) for a further 2 hrs. Oligomerisation of ASC-YFP was observed by speck formation, original magnification ×60. (d) IL-1β (left panel) and TNF-α (right panel) production in WT and Nlrp3^-/- BMDCs primed with LPS (3 h) and activated with C1Q (16 h) at increasing doses (2.5, 5 and 10 μg C1Q). (e) IL-1β, IL-18 and IL-6 production in human PBMC primed with […] LPS overnight and activated with 5 μg ml C1Q for 6 h, with the addition, 1 h before C1Q treatment of increasing doses (10 fold) of ZVAD (caspase-1 inhibitor). All ELISA data are representative of a minimum of 3 separate experiments carried out in triplicate.
(§2) ELISA's were used to quantify cytokines in supernatants from the various experimental groups used throughout this study. IL-1β (RnD Systems), IL-18 (MBL International), IL-6 (RnD Systems), TNF-α (RnD Systems) and VEGF (RnD Systems) were analyzed throughout. All ELISA's were conducted a minimum of 3 times in triplicate. Inhibitors used during this study were added at the following highest concentrations 1 h prior to inflammasome activation: 1 μg/ml of caspase-1 inhibitor VI (Calbiochem), 5 μM cytochalasin D (Sigma Aldrich, Ireland), 10 μM CA-074 Me (cathepsin B inhibitor) (Sigma Aldrich, Ireland), 10 μM DPI (Sigma Aldrich, Ireland).
(§3) ARPE-19 cell line (ATCC CRL 2302) were obtained from LGC promochem, THP1 cells and primary isolated human peripheral blood mononuclear […] (PBMCs) were used for in vitro inflammasome activation assays. […]

BMDCs = experiment: Cytokine ELISA in WT and Nlrp3-/- BMDCs primed with LPS and activated with C1Q; type: cell-based, mouse; details: for production of IL-1β: LPS 3 h, C1Q 16 h
Procedure: as §1, §2, §3

ARPE-19 cells = experiment: VEGF ELISA in ARPE-19 cells treated with recombinant IL-18; type: cell-based; details: increasing doses of IL-18, 24 hrs, growth medium
Procedure: as §2
(§4) ARPE-19 cell line (ATCC CRL 2302) were obtained from LGC promochem, THP1 cells and primary isolated human peripheral blood mononuclear […] (PBMCs) were used for in vitro inflammasome activation assays. Cells were cultured at 37° C., 5% CO2, 95% air in a 1:1 mixture of Dulbecco's modified Eagle's medium (DMEM) and Ham's F12 medium with 1.2 g/L sodium bicarbonate, 2.5 mM L-glutamine, 15 mM HEPES, 0.5 mM sodium pyruvate (Sigma Aldrich) with 10% foetal calf serum (FCS). […]
(§5) We reasoned that IL-18 might confer its protection via the regulation of VEGF synthesis. To test this hypothesis we treated ARPE19 cells and a mouse brain microvascular endothelial cell line (bEnd.3) with recombinant IL-18 and subsequently analysed VEGF levels in the growth medium. […]

[2] = system: intraocular neovascularization in C57BL/6 mice; details: administered to C57BL/6 mice during development of oxygen induced retinopathy; cited from earlier work
[3] = system: mouse brain microvascular endothelial cell line (bEnd.3); experiment: VEGF ELISA in bEnd.3 cells treated with recombinant IL-18; type: cell-based; details: increasing doses of IL-18, 24 hrs, growth medium
Procedure: as §2, §4, §5

human PBMC = experiment: Cytokine ELISA in LPS-primed, C1Q-activated human PBMC with inhibitors; type: cell-based; details: PBMC primed with LPS overnight, 5 μg/ml C1Q 6 h, inhibitor added 1 h before C1Q
Procedure: as §1
FIG. 13: IL-1β, IL-18 and IL-6 production in human PBMC primed with 100 ng/ml LPS overnight and activated with 5 μg/ml C1Q for 6 h, with the addition, 1 h before C1Q treatment of increasing doses (10 fold) of (a) DPI (ROS inhibitor), (b) Bafilomycin (inhibits lysosomal acidification), (c) CA-074 Me (cathepsin B inhibitor).
as §2
ARPE-19 cell line (ATCC CRL 2302) were obtained from LGC promochem, THP1 cells and primary isolated human peripheral blood mononuclear […] (PBMCs) were used for in vitro inflammasome activation assays. Cells were cultured at 37° C., 5% CO2, 95% air in a 1:1 mixture of Dulbecco's modified Eagle's medium (DMEM) and Ham's F12 medium with 1.2 g/L sodium bicarbonate, 2.5 mM L-glutamine, 15 mM HEPES, 0.5 mM sodium pyruvate (Sigma Aldrich) with 10% foetal calf serum (FCS). BMDCs and BMDMs were also isolated from WT, NLRP3-/-, TLR-2-/-, C3H/HeN and C3H/HeJ mice on a congenic C57/B16 background. BMDCs and BMDMs were stained with anti-CD11c-APC and anti-CD11b-PeCy7. Cells were gated on live single cells and expression of CD11c and CD11b was assesed by flow cytometry (FIG. 19). Mouse bEnd.3 microvascular endothelial cells were grown on fibronectin (Sigma Aldrich Ireland) coated tissue culture flasks in DMEM containing Glutamax and 10% FCS.

wet AMD = details: human, in vivo; cited from earlier work

## C1Q: complement factor, primary initiating component of the classical complement pathway; drusen component, isolated from human blood
BMDMs expressing YFP-ASC
  ASC oligomerisation (YFP-ASC speck formation): could cause ASC oligomerisation
THP1 cells
  cleaved caspase-1 p10: observed cleaved caspase-1 p10
[1]
  zeta average (zeta potential): 11.8 mV
BMDMs; BMDMs primed with CEP-HSA 3 h, C1Q 6 h
  production of IL-1β: produced significant levels of IL-1β
BMDMs; BMDMs primed with CEP-HSA, C1Q added
  secretion of TNFα: remained unchanged
BMDMs; C1Q alone, unprimed BMDMs
  production of IL-1β: did not cause the production of IL-1β
BMDCs; Nlrp3-/- cells
  production of IL-1β: failed to produce IL-1β
BMDCs; WT BMDCs
  production of IL-1β: did produce a significant level of IL-1β
BMDCs; WT and Nlrp3-/- BMDCs, LPS primed, C1Q
  levels of TNFα: remained unchanged

## IL-18: 18KDa mature IL-18; protein sequence NCBI Accession no. NP—001553.1; also covers recombinant IL-18
ARPE-19 cells
  levels of VEGF secreted: significantly decreased
[2]
  neovascularization: no inhibition of neovascularization
[3]
  levels of VEGF secreted: significantly decreased

## CO/C1=C\C(C)=C\[C@@H](C)[C@@H](O)[C@@H](C)C/C(C)=C/C=C/[C@H](OC)[C@@H]([C@@H](C)[C@@H](O)[C@H](C)[C@@]2(O)C[C@@H](O)[C@H](C)[C@@H](C(C)C)O2)OC1=O [bafilomycin A]
Human PBMC
  C1Q induced IL-1β production: restricted
  C1Q induced IL-18 production: restricted
  IL-6 production: no effect

## CCCNC(=O)[C@H]1O[C@@H]1C(=O)N[C@H](C(=O)N1CCC[C@H]1C(=O)OC)[C@@H](C)CC [CA-074 Me]
Human PBMC
  C1Q induced IL-1β production: restricted
  C1Q induced IL-18 production: restricted
  IL-6 production: no effect

## Infliximab: marketed drug tested in clinical trials in wet AMD
Wet AMD
  subjects in whom symptoms were greatly exacerbated: more than 50%

## c1ccc2c(c1)[I+]c1ccccc1-2 [DPI]
Human PBMC
  C1Q induced IL-1β production: no effect

## CC(NC(=O)C(NC(=O)OCc1ccccc1)C(C)C)C(=O)NC(CC(=O)O)C(=O)CF (stereo not drawn) [ZVAD] (Cbz-Val-Ala-Asp-CH2F; configuration not given here)
Human PBMC
  C1Q induced IL-1β production: decreased
  C1Q induced IL-18 production: decreased
